Assay [1] concerns the target T1, PRMT1 (Homo sapiens, UniProt Q99873). The assay can be described thus: PRMT1 RKO Cellular Target Engagement Assay (In-Cell Western, asymmetric di-methyl arginine). It counts as cell-based. Particulars: RKO cells, 48 hr compound incubation; read-out: RKO IC50 (PRMT-1 Target Engagement). The method in brief: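 RKO cells (1,000/well) received 1:3 serially diluted compound for 48 h at 37 °C, then were fixed, permeabilised and immunostained for asymmetric di-methyl arginine by In-Cell Western. The 800 nm antibody signal was normalised to CellTag 700 nm; IC50 from four-parameter logistic fit.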

Another assay concerns PATC53 cells. The assay can be described thus: PATC53 Long Term Phenotypic Assay (14 days, crystal violet viability). As to conditions: 336 h. The format is cell-based. The method in brief: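 Cells seeded at 250 per well, allowed 24 h to settle, then treated with 1:3 serial dilutions of compound for 14 days at 37 °C, 5% CO2. Viability measured by crystal violet staining, solubilised in 10% HOAc, absorbance 590 nm; IC50 from four-parameter logistic fit.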

The target of assay [2] is T1, PRMT1. The assay is described as follows: PRMT1 Enzymatic Assay (LANCE TR-FRET, methylation of histone H4 at Arg3). Particulars: PRMT1 1.5 nM, SAM 1 μM, biotinylated histone H4 (1-21) 25 nM; read-out: PRMT-1 IC50. It counts as biochemical. Also on record: purchased SignalChem P365-380G. The method in brief: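 PRMT1 (1.5 nM) preincubated 15 min with compound at room temperature, then reacted 1 h with 1 μM SAM and 25 nM biotinylated histone H4 (1-21) in 50 mM Hepes pH 8, 1 mM TCEP, 0.003% Tween-20. H4R3me detected by TR-FRET (665/620 nm ratio); IC50 from four-parameter logistic fit.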
(TR-FRET usually uses a lanthanide donor and a delayed reading to cut background.)

The subject of the next assay is DOHH2 cells. The assay can be described thus: DOHH2 Long Term Phenotypic Assay (7 days, Cell Titer-Glo viability). It counts as cell-based. Particulars: Homo sapiens, DOHH-2, 168 h, Cell Titer-Glo 2.0. The method in brief: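 DOHH2 lymphoma cells (250 per well) in RPMI-1640 with 10% FBS were exposed to 1:3 serially diluted compounds for 7 days at 37 °C, 5% CO2. Viability was read by CellTiter-Glo 2.0 luminescence, and IC50 values came from four-parameter logistic fits.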
In general terms: ATP-based viability assays read luminescence as a measure of living cells.

SMILES strings stand for the structures.

T1 sequence (Q99873 whole entry): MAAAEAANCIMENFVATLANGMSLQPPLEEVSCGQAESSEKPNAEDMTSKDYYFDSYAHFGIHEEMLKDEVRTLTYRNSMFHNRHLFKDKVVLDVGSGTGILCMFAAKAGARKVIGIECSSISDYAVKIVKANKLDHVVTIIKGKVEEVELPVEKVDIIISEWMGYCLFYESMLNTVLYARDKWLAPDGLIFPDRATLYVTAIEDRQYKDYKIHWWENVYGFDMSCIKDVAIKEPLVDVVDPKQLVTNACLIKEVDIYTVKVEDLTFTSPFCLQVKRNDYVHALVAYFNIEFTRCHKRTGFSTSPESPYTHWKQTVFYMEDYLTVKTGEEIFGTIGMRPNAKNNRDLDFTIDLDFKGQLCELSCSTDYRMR

In the case of `CNCCN(C)Cc1nn2c(c1C1CCC(COC)(COC)CC1)CN(C(=O)C1CC(C(F)(F)F)C1)CC2` (centres unmarked) [Example 74, (3-(4,4-bis(methoxymethyl)-cyclohexyl)-2-((methyl(2-(methylamino)ethyl)amino)-methyl)-6,7-dihydropyrazolo-[1,5-a]pyrazin-5(4H)-yl)(3-(trifluoromethyl)cyclobutyl)-methanone], the IC50 at PRMT1 [1] came out at 142 nM; with PATC53 cells, 54 nM; at PRMT1 [2] it was 57 nM; in the assay with DOHH2 cells, 93 nM.

Consider `CNCCN(C)Cc1nn2c(c1C1CCC(COC)(COC)CC1)CN(C(=O)C1(C)CCCC1)CC2` [Example 80, (3-(4,4-bis(methoxymethyl)-cyclohexyl)-2-((methyl(2-(methylamino)ethyl)amino)-methyl)-6,7-dihydropyrazolo-[1,5-a]pyrazin-5(4H)-yl)(1-methylcyclopentyl)-methanone], for which the half-maximal inhibitory concentration (IC50) at PRMT1 [1] came to 116 nM; in the assay on PATC53 cells it was 70 nM; on PRMT1 [2] it was 91 nM; in the assay with DOHH2 cells, 104 nM.

As usually defined, the IC50 is the point on the concentration scale where inhibition reaches its midpoint.

These data come from patent US20230416261A1, “ETHANEDIAMINE-HETEROCYCLE DERIVATIVES AS INHIBITORS OF PROTEIN ARGININE METHYLTRANSFERASES” (Board of Regents, The University of Texas System, priority 2021, published 2023).
